Legend:
[1] = Serum pyridoxamine and pyridoxal concentrations in schizophrenia patients during drug administration; type: in vivo, human
Method: Measurement of the serum pyridoxamine concentration, the serum pyridoxal concentration, and the serum pyridoxine concentration was outsourced to SRL Inc. or Mitsubishi Chemical Medience Corporation (now LSI Medience Corporation).
Pyridoxamine dihydrochloride was orally administered as a pyridoxamine compound to schizophrenia patients daily, three times a day (morning, noon, and before bedtime) in an amount of 400 mg or 600 mg each time (daily dose of pyridoxamine: about 830 mg or 1250 mg) according to the protocols shown in FIG. 2 (described as “PM dose (mg/one time)” in FIG. 2).

[2] = test system: vitamin B1 in human whole blood; test: In vitro effect on vitamin B1 concentration in human whole blood; settings: human whole blood, 5, 50, 500 μg/mL, 37° C.
Source text: In addition, as described in Experiment Example 1 and Experiment Example 2, administration of a pyridoxamine compound increases not only the serum pyridoxamine concentration, but also the serum pyridoxal concentration, and thus, pyridoxamine and pyridoxal were both used as test substances for the investigation.
Blood was collected from a human using EDTA⋅2K as an anticoagulant. In addition, pyridoxamine dihydrochloride (Sigma-Aldrich Japan) was used as pyridoxamine, and pyridoxal hydrochloride (Nacalai Tesque, Inc.) was used as pyridoxal. They were dissolved at 0.5, 5, and 50 mg/mL in physiological saline to prepare test solutions. 10 μL of each test solution was individually added per mL of the whole blood collected above (test samples). The final concentrations of each test substance in the test samples were 5, 50, 500 μg/mL. Further, a vehicle was prepared by adding 10 μl of physiological saline to 1 ml of the whole blood. The vehicle and the test samples were incubated at 37° C. for 1 hour or 16 hours and then immediately frozen. Measurement of the vitamin B1 concentrations in the whole blood before the start of the incubation to which neither the physiological saline nor any test solution was added (baseline: indicated by “BL” in FIG. 4), and in the vehicle and in each test sample after the incubation, was outsourced to SRL Inc., and the measurement was performed using LC/MS/MS.

[3] = Blood kinetics of pyridoxamine compound in people with reduced renal function; type: in vivo, human; settings: 150 mg pyridoxamine dihydrochloride oral
Method: As described in Experiment Example 1 above, administration of a pyridoxamine compound increases not only the blood pyridoxamine concentration, but also the blood pyridoxal concentration. Rather, in blood, the pyridoxal concentration was higher than the pyridoxamine concentration. Thus, changes in the serum concentrations of pyridoxamine, pyridoxal, pyridoxine, and 4-pyridoxic acid after administration of a pyridoxamine compound were observed over time.
More specifically, 150 mg of pyridoxamine dihydrochloride was orally administered to each of six people with reduced renal function (subjects) (average age: 56 years old, average body weight: 67 kg). Blood was collected 0.5, 1, 1.5, 2, 2.5, 3, 4, 5, 6, 8, 10, and 12 hours after the administration, and the serums were collected. Measurement of the serum concentrations of pyridoxamine, pyridoxal, pyridoxine, and 4-pyridoxic acid was outsourced to Shin Nippon Biomedical Laboratories, Ltd.

[4] = test system: vitamin B1 deficiency; test: Prevention of vitamin B1 deficiency by pyridoxamine compound in combination with thiamine compound; type: in vivo, human; settings: seven schizophrenia patients; pyridoxamine dihydrochloride 1200 to 1800 mg per day oral for 24 weeks, with fursultiamine 75 mg/day oral from 2 to 21 weeks after start

Cc1ncc(CO)c(CN)c1O.Cl.Cl [pyridoxamine dihydrochloride]
serum pyridoxamine concentration, times higher than at the start of drug administration ([1]; patient ID No. 3, 4 weeks after the start of drug administration): about 7700 times
serum pyridoxamine concentration, times higher than at the start of drug administration ([1]; patient ID No. 6, 8 weeks after the start of drug administration): about 2100 times
change in whole blood vitamin B1 concentration ([2]; 1 hour incubation): no changes
change in whole blood vitamin B1 concentration ([2]; 16 hours incubation): decrease was similar to that in the vehicle
change in the concentration of pyridoxine (PN) ([3]; serum up to 12 hours): No large change
time after administration at which the serum concentration of pyridoxamine (unchanged form) peaked ([3]; six people with reduced renal function): 2 h
findings suggestive of vitamin B1 deficiency [4]: no findings suggestive of vitamin B1 deficiency were observed in any of the seven schizophrenia patients

Reference: US11564924B2, “Pharmaceutical composition formed by combining pyridoxamine compound and thiamine compound” (RENASCIENCE CO., LTD., priority 2014, dated 2023)
